According to patent US12458688B2, “Epitopes” (Scancell Limited, priority 2018, dated 2025):
Where no end group is shown, it is not given here. [ ]: non-standard residue; d: D form. hCit = NC(=O)NCCCC[C@H](N)C(=O)O

Tests used:
[1] = test system: B16HHDII/iDP4 tumour cells; test: Tumour therapy, B16HHDII/iDP4 tumour in HHDII/DP4 mice; format: in vivo, mouse; settings: peptide with CpG/MPLA
Protocol: For tumour challenge experiments, mice were challenged with B16F1 cells s.c. on the right flank 3 days before primary immunisation (unless stated otherwise) and subsequently immunised as above. Tumour implants were carried out at dose of 2.5×10^4 cells/mouse for B16F1, 2.5×10^4 cells/mouse for B16F1 DR4, 4×10^5 cells/mouse for B16F1 HHDII/DP4, 5×10^5 cells/mouse for B16 HHDII/DR1, 1×10^5 cells/mouse for B16F1 HHDII/inducibleDP4, 5×10^4 cells/mouse for B16F1 inducible DR4. For studies involving depletion antibodies, 250 μg anti-mouse Ly6C antibody (clone Monts, BioXcell) was administered i.p. on days 8, 10, 12, 15, 17 and 19. 400 μg anti-mouse Ly6G antibody (clone 1A8, Biolegend) was administered i.p. on day 8 followed by 250 μg on days 11, 15 and 18. Anti-human CD4 antibody (clone OKT4, BioXcell) or anti-mouse CD8 antibody (clone 2.43, BioXcell) were administered at 500 μg dose on day 4 followed by 300 μg dose on days 8 and 11. Tumour growth was monitored twice weekly and mice were humanely euthanised once tumour reached ≥15 mm in diameter.
To provide further evidence for the role of CD4 T cell responses in tumour therapy HHDII/DP4 mice were implanted with B16HHDII/iDP4 tumour cells on day 1 and then immunised with peptides and CpG/MPLA on days 4, 8 and 11. Concurrent with peptide immunisation mice were also treated with CD4 or CD8 depleting antibody and tumour growth monitored. […] To show whether cyanate/isocyanic acid can cross cell membranes B16F1 melanoma cell line was cultured in vitro in the presence or absence of potassium cyanate which is in dynamic equilibrium with isocyanic acid. As a positive control lysates were also produced from in vitro cultured B16F1 cells and then treated with or without KCNO.

[2] = test system: splenocytes from immunised mice; test: Ex vivo IL-17 ELISpot after peptide immunisation; settings: mouse, in vivo
Protocol: C57BL/6 mice (Charles River, UK), HLA-DR4 mice (Model #4149, Taconic, USA), HLA-A2/DR1 (HHDII/DR1, Pasteur Institute), HLA-A2.1+/+HLA-DP4+/+hCD4+/+ (HLA-HHDII/DP4) transgenic mice (EM: 02221, European Mouse Mutant Archive) described in patent WO2013/017545 A1 (EMMA repository, France) were used, aged between 8 and 12 weeks. Peptides were dissolved in PBS to 1 mg/ml and then emulsified (a series of dilutions) with CpG ODN 1826 and MPLA 6 μg/mouse of each (Invivogen, UK). Peptides (25 μg/mouse) were injected subcutaneously at the base of the tail. Mice were immunised at days 1, 7 and 14 for peptide immunisation. Spleens were removed for analysis at day 21 unless stated otherwise.
ELISpot assays were performed using murine IFNγ, IL-17 and IL-10 capture and detection reagents according to the manufacturer's instructions (Mabtech, Sweden). In brief, anti-IFNγ, IL-17 and IL-10 specific antibodies were coated onto wells of 96-well Immobilin-P plate. […] After incubation, captured IFNγ, IL-10 and IL-17 were detected by biotinylated anti-IFNγ, IL-10 and IL-17 antibodies and developed with a streptavidin alkaline phosphatase and chromogenic substrate. […] Spots were analysed and counted using an automated plate reader (Cellular Technologies Ltd).

[3] = test system: IFNγ-inducible B16 DR4 tumour; test: Tumour therapy, IFNγ-inducible B16 DR4 tumour in HLA-DR4 mice; format: in vivo, mouse; settings: peptide with CpG/MPLA
Text: To mimic the naturally occurring tumour, we engineered B16F1 cells to express HLA-DR4 under control of mouse IFNγ-inducible promoter. […] HLA-DR4 mice were then implanted with this IFNγ-inducible B16 DR4 tumour followed by immunisation with vimentin 116-135Hcit peptide (FIG. 19e).

LREYQELMNV-hcit-LALDIEI (LREYQELMNV[hCit]LALDIEI) [Cyk8 371-388 Hcit]
tumour growth / survival vs control [1]: Significant prevention of tumour growth

NYID-Hcit-VRFLEQQN-Hcit-ILLAEL (NYID[hCit]VRFLEQQN[hCit]ILLAEL) [Vimentin 116-135 Hcit]
IL-17 ELISpot response [2]: no production | survival [3]: 40%
